Measurements from US20210395327A1, “Growth Hormone-Releasing Hormone Antagonists and Uses Thereof” (United States Government As Represented By The Department …, priority 2019, published 2021).
Non-standard residues stand in square brackets, D forms with d. Residues, ends and D or L forms follow the SMILES beside them. *: point of attachment. Phenylacetyl(2,3,4,5,6-F5) = O=C(Cc1c(F)c(F)c(F)c(F)c1F)*; Phe(F5) = N[C@@H](Cc1c(F)c(F)c(F)c(F)c1F)C(=O)O; Phe(4-Cl) = N[C@@H](Cc1ccc(Cl)cc1)C(=O)O; hArg = N=C(N)NCCCC[C@H](N)C(=O)O; 12Ado = NCCCCCCCCCCCC(=O)O; Nle = CCCC[C@H](N)C(=O)O; Orn = NCCC[C@H](N)C(=O)O; Abu = CC[C@H](N)C(=O)O

Legend:
[1] = tested on: stomach cancer N87 xenograft; assay: Xenograft tumor growth in nude mice, N87; type: in vivo; details: for % Inhibition: vs control
Protocol: The peptides' activity was compared with GHRH antagonist MIA-602. All statistical analyzses were performed from comparing GHRA antagonists to non-treated tumor (control).
Peptides and chemicals. GHRH antagonists MIA-602 and AVR-GHRH antagonists (see Table 2 above) were synthesized by solid phase methods and purified by HPLC. The peptides were dissolved in DMSO and further diluted in 10% 1,2-propanediol. The final concentration of peptides was 50 µg/ml in 10% 1,2-propanediol containing 0.1% of DMSO.
(§1) Cell culture. Human cancer cell lines including pancreatic (PANC-1 and CFPAC-1), lung (HCC827 and H460), stomach (NCI-N87), prostate (PC3), brest (MX-1 and HCC-1806), colorectal (HT-29), and ovarian (SK-OV-3 and OVCAR-3) were obtained from the American Type Culture Collection (ATCC) and cultured at 37° C. in a humidified 95% air/5% CO2 atmosphere in the medium recommended by ATCC.
Xenograft models of human cancers in nude mice. Female athymic (NCr nu/nu) nude mice, 5- to 6-weeks-old, obtained from the Envigo labs (Tampa, Fla.), were housed in laminar airflow cabinets under pathogen-free conditions with a 12-h light/12-h dark schedule, and were fed autoclaved standard chow and water. To generate mice with xenografted tumors, tumor xenografts were initiated by subcutaneous (s.c.) injection of 107 human cancer cells into female nude mice. After about 4 weeks the resulting tumors were dissected and collected after removing necrosis tissues. The tumors were then cut into particles with size of 3 mm3 and transplanted s.c. by trocar needle into experimental animals. When tumors grew to the size of 50-60 mm3 (by volume), […] of 5 μg of GHRH antagonists MIA-602 or AVR-compounds (2-10 μg as indicated), or vehicle solutions (0.1% DMSO in 10% 1,2-propanediol) respectively. Tumor sizes were measured weekly.
Statistical analysis. One-way ANOVA followed by Bonferroni comparison were performed. Data are expressed as Mean±SEM. To determine statistical significance between animal groups, two-tailed Student's t-test was conducted. Differences were considered significant when p<0.05.
Results. […] FIG. 1A-N represents in vivo inhibition of tumor growth during the treatment with GHRH antagonist MIA-602 and selected AVR antagonists in nude mice xenografted with various human tumors including pancreatic cancer PANC-1 (FIG. 1A) and CFPAC-1 (FIG. 1I); lung cancer HCC827 (FIGS. 1B, C) and H460 (FIG. 1H); stomach cancer N87 (FIGS. 1D-F); colon cancer HT-29 (FIG. 1G); breast cancer MX-1 and HCC-1806 (FIGS. 1J, K); ovarian cancer SK-OV-3 and OVACAR-3 (FIGS. 1 L, M) and prostate cancer PC3 (FIG. 1N). See also Table 5.

[2] = tested on: GH release from rat pituitary cells; assay: Inhibition of GH release from rat pituitary cells in vitro (GH ELISA); type: cell-based; details: for Relative GH release: analogs 20 nM, then with 1 nM GHRH(1-29)NH2 for 30 minutes, Control = 1.00
Protocol: In vitro assessment of the antagonistic activity of GHRH analogs. Rats were decapitated and pituitaries were collected in pre-warmed HBSS (Hanks' Balanced Salt Solution). Tissue was then cut into small pieces and digested in HBSS medium containing 3% BSA, 50 μg/ml gentamycin and 0.5% collagenase for 50 minutes at 37° C. Cells were further dispersed by pipetting and passed through a 100 μm cell strainer with the addition of DMEM containing 50 μg/ml gentamycin. 10% horse serum and 2.5% FBS (growth medium). Cells were harvested at 475×g for 2 minutes, resuspended in fresh growth medium and seeded onto poly-D-lysine-coated 24-well plates (7 pituitaries/plate). Cells were left to recover for 4 days. Growth medium was then replaced with serum-free DMEM for 4 hours and GHRH analogs (at concentration of 20 nM) were added in DMEM containing 0.1% BSA for 30 minutes. Cells were replenished with medium containing the same concentration of the analogs and 1 nM GHRH(1-29)NH2 for 30 minutes. Medium from this step was collected, centrifuged at 800 g for 3 minutes and GH concentration was determined by ELISA (ALPCO Diagnostics, Mill Valley, Calif.) according to the manufacturer's instruction.

HT-29 colon cancer cells = assay: In vitro cell viability, HT-29; type: cell-based, human; details: Table 3B; 5 μM for 72 H; MIA-602 = 1
Protocol: The inhibitory effects of the various synthesized GHRH antagonists were tested in cell proliferation assays in various human cancer cell lines including stomach cancer (KATOIII, N87), colon cancer (HT-29), urothelial cancer (J82, RT4), pancreatic cancer (PANC-1, CFPAC-1), prostatic cancer (PC3), breast cancer (MX-1, HCC1806), ovarian cancer (SK-OV-3, OVCAR-3) and lung cancer (HCC827, H460).
as §1, with “(NCI-N87 and KATOIII), urothelial (J82, RT4), prostatic” for “(NCI-N87), prostate”, “breast” for “brest”, “HCC 1806),” for “HCC-1806),”
In vitro cell viability. Cell viability was analyzed as follows: cancer cells including pancreatic (PANC-1 and CFPAC-1), lung (HCC827 and H460), stomach (NCI-N87 and KATOIII), urothelial (J82, RT4), prostatic (PC3) and breast (MX-1 and HCC 1806), colorectal (HT-29) and ovarian (SK-OV-3 and OVCAR-3) were grown on 96 well plates to ˜60% confluence, the cells were starved for 24 h in culture medium containing 0.5% FBS. Cells were then treated with GHRH antagonists MIA602 AVR compounds at concentrations of 1, 2.5 or 5 μM, or vehicle (0.1% DMSO) in quintuplicates for 72 hours. The medium was replaced every 48 hours. Cell viability was measured using CellTiter 96 aqueous one solution kit (Promega). Inhibitory effects of tested AVR compounds in comparison to that of MIA602 are presented as inhibitory potency.
Inhibitory effects of selected AVR compounds in comparison to that of MIA602 are presented as inhibitory potency (e.g., percentage of inhibition). […] The cell lines tested including lung cancer HCC827 (FIG. 2A), pancreatic cancer CFPAC-1 (FIG. 2B), stomach cancer N87 (FIG. 2C), colon cancer HT-29 (FIG. 2D), breast cancers MX-1 and HCC1806 (FIGS. 2 E, F). Based on the results of cell proliferation assay after cancer cells were treated with antagonist at concentration of 5 μM for 72H, the relative inhibitory potency of AVR antagonists in comparison to MIA-602 is summarized in Table 3 A and B. Over 60 AVR compounds were tested in 12 cancer cell lines.
Based on the results of cell proliferation assay after cancer cells were treated with antagonist at concentration of 5 µM for 72H, * at concentration of 2 µM for 72 H.

[3] = Table 4D, Stomach Ca N87, 10 weeks, 2 μg/day s.c.
[4] = Table 4E, Stomach Ca N87, 4 weeks, 2 μg/day s.c.
[5] = Table 4E, Stomach Ca N87, 4 weeks, 5 μg/day s.c.

CCCC[C@H](NC(=O)[C@@H](NC(=O)[C@H](CC(=O)O)NC(=O)[C@H](CCC(N)=O)NC(=O)[C@H](CC(C)C)NC(=O)[C@H](CC(C)C)NC(=O)[C@H](CCCCN)NC(=O)[C@H](CCCNC(=N)N)NC(=O)[C@H](C)NC(=O)[C@H](CO)NC(=O)[C@H](CC(C)C)NC(=O)[C@H](CCC(N)=O)NC(=O)[C@H](CC)NC(=O)[C@H](CC(C)C)NC(=O)[C@@H](NC(=O)[C@H](CCCCN)NC(=O)[C@H](CCCNC(=N)N)NC(=O)[C@H](Cc1ccc(OC)cc1)NC(=O)[C@H](CCCCNC(=N)N)NC(=O)[C@H](CC(N)=O)NC(=O)[C@@H](NC(=O)[C@H](Cc1ccc(Cl)cc1)NC(=O)[C@@H](NC(=O)[C@H](C)NC(=O)[C@H](CC(=O)O)NC(=O)[C@@H](CCCNC(=N)N)NC(=O)[C@H](Cc1ccc(O)cc1)NC(=O)CCCCCCCCCCCNC(=O)Cc1c(F)c(F)c(F)c(F)c1F)[C@@H](C)CC)[C@@H](C)O)C(C)C)[C@@H](C)CC)C(=O)N[C@H](CCCNC(=N)N)C(=O)N[C@@H](CCCCNC(=N)N)C(=O)NCCCCCCCCCCCC(N)=O [AVR-333, 5FPhAC-Ada-Tyr-DArg-Asp-Ala-Ile-Cpa-Thr-Asn-Har-Tyr(Me)-Arg-Lys-Val-Leu-Abu-Gln-Leu-Ser-Ala-Arg-Lys-Leu-Leu-Gln-Asp-Ile-Nle-DArg-Har-Ada-NH2] ({Phenylacetyl(2,3,4,5,6-F5)-12Ado}-Y[dR]DAI[Phe(4-Cl)]TN[hArg]Y(Me)RKVL[Abu]QLSARKLLQDI[Nle][dR][hArg][12Ado]-NH2)
Tumor Size (mm^3) [1, 3]: 454.00 mm^3
% Inhibition [1, 3]: 62.9%
Relative GH release [2]: 0.88 ± 0.03

CCCC[C@H](NC(=O)[C@@H](NC(=O)[C@H](CC(=O)O)NC(=O)[C@H](CCC(N)=O)NC(=O)[C@H](CC(C)C)NC(=O)[C@H](CC(C)C)NC(=O)[C@H](CCCCN)NC(=O)[C@H](CCCNC(=N)N)NC(=O)[C@H](C)NC(=O)[C@H](CO)NC(=O)[C@H](CC(C)C)NC(=O)[C@H](CCC(N)=O)NC(=O)[C@H](CC)NC(=O)[C@H](CC(C)C)NC(=O)[C@@H](NC(=O)[C@H](CCCCN)NC(=O)[C@H](CCCNC(=N)N)NC(=O)[C@H](Cc1ccc(OC)cc1)NC(=O)[C@H](CCCCNC(=N)N)NC(=O)[C@H](C)NC(=O)[C@@H](NC(=O)[C@H](Cc1c(F)c(F)c(F)c(F)c1F)NC(=O)[C@@H](NC(=O)[C@H](C)NC(=O)[C@H](CC(=O)O)NC(=O)[C@@H](CCCNC(=N)N)NC(=O)[C@H](Cc1ccc(O)cc1)NC(=O)CCCCCCCCCCCNC(=O)Cc1c(F)c(F)c(F)c(F)c1F)[C@@H](C)CC)[C@@H](C)O)C(C)C)[C@@H](C)CC)C(=O)N[C@H](CCCNC(=N)N)C(=O)N[C@@H](CCCCNC(=N)N)C(=O)NCCCCCCCCCCCC(N)=O [AVR-352, 5FPhAC-Ada-Tyr-DArg-Asp-Ala-Ile-5FPhe-Thr-Ala-Har-Tyr(Me)-Arg-Lys-Val-Leu-Abu-Gln-Leu-Ser-Ala-Arg-Lys-Leu-Leu-Gln-Asp-Ile-Nle-DArg-Har-Ada-NH2] ({Phenylacetyl(2,3,4,5,6-F5)-12Ado}-Y[dR]DAI[Phe(F5)]TA[hArg]Y(Me)RKVL[Abu]QLSARKLLQDI[Nle][dR][hArg][12Ado]-NH2)
In vitro relative inhibitory potency in comparison to MIA-602, HT-29 (HT-29 colon cancer cells): 1.197
Relative GH release [2]: 0.72 ± 0.03
inhibitory effects on the release of GH, compared with MIA-602 (in words) ([2]; rat pituitary cells in vitro, 20 nM): higher inhibitory effects than MIA-602

CCCC[C@H](NC(=O)[C@@H](NC(=O)[C@H](CC(=O)O)NC(=O)[C@H](CCC(N)=O)NC(=O)[C@H](CC(C)C)NC(=O)[C@H](CC(C)C)NC(=O)[C@H](CCCN)NC(=O)[C@H](Cc1c[nH]cn1)NC(=O)[C@H](C)NC(=O)[C@H](CO)NC(=O)[C@H](CC(C)C)NC(=O)[C@H](CCC(N)=O)NC(=O)[C@H](CC)NC(=O)[C@H](CC(C)C)NC(=O)[C@@H](NC(=O)[C@H](CCCN)NC(=O)[C@H](Cc1c[nH]cn1)NC(=O)[C@H](Cc1ccc(OC)cc1)NC(=O)[C@H](CCCCNC(=N)N)NC(=O)[C@H](C)NC(=O)[C@@H](NC(=O)[C@H](Cc1c(F)c(F)c(F)c(F)c1F)NC(=O)[C@@H](NC(=O)[C@H](C)NC(=O)[C@H](CC(=O)O)NC(=O)[C@@H](CCCNC(=N)N)NC(=O)[C@H](Cc1ccc(O)cc1)NC(=O)CCCCCCCCCCCNC(=O)Cc1c(F)c(F)c(F)c(F)c1F)[C@@H](C)CC)[C@@H](C)O)C(C)C)[C@@H](C)CC)C(=O)N[C@H](CCCNC(=N)N)C(=O)N[C@@H](CCCCNC(=N)N)C(=O)NCCCCCCCCCCCC(N)=O [AVR-553, 5FPhAC-Ada-Tyr-DArg-Asp-Ala-Ile-5FPhe-Thr-Ala-Har-Tyr(Me)-His-Orn-Val-Leu-Abu-Gln-Leu-Ser-Ala-His-Orn-Leu-Leu-Gln-Asp-Ile-Nle-DArg-Har-Ada-NH2] ({Phenylacetyl(2,3,4,5,6-F5)-12Ado}-Y[dR]DAI[Phe(F5)]TA[hArg]Y(Me)H[Orn]VL[Abu]QLSAH[Orn]LLQDI[Nle][dR][hArg][12Ado]-NH2)
Tumor Growth % [1, 4]: 532.7%
% Inhibition [1, 4]: 40.3%
Tumor Growth % [1, 5]: 283.3%
% Inhibition [1, 5]: 68.3%
Relative GH release [2]: 0.82 ± 0.04
